{"source": "paper PMC11189555", "about": "“Aryl amino acetamides prevent Plasmodium falciparum ring development via targeting the lipid-transfer protein PfSTART1” (Nature Communications, 2024)", "test_system": "3D7 P. falciparum parasites", "assay": "Growth inhibition assay (72 h, LDH activity)", "format": "cell-based, Plasmodium falciparum", "conditions": "for sample/DMSO (growth inhibition vs DMSO, LDH): 3D7, 2.5 mM GlcN, biological replicates 1-4; for (av-uRBC) / (DMSO-uRBC) x100: 3D7", "method": "Parasite growth assays with inhibitory compounds were performed as per[11] and are fully described in the Supplementary Information. […]\nGrowth inhibition assays. Synchronised ring-stage parasites (0.3-0.6% parasitemia, 2% haematocrit) were grown for 72 h in a serial-dilution of the compound under […]\nand compound 4. Note that M-833 was first purchased from MolPort (MolPort -002-267-916) then made in-house at WEHI: the differences observed in EC50s across experiments are attributed to the different batches of M -833. For some experiments, 0, 0.25 or 2.5 mM of glucosamine (GlcN) was also added. Experiments were set up in technical duplicates or triplicates. Following a freeze -thaw cycle, lactate dehydrogenase (LDH) activity was assessed as an indicator of parasite growt h 5. 30 μL of parasite culture was incubated for 30 min in the dark with 75 μL Malstat mixture (0.1 M Tris pH 9.0, 20 g/L lactic acid, pH 7.5, 0.2% Triton-X100, 0.5 g/L acetylpyridine adenine dinucleotide (APAD, Sigma), 200 μg/mL nitroblue tetrazolium (NBT; Sigma), 1 μg/mL phenozine ethosulfate (PES; Sigma)). Absorbance was then measured at 650 nm, transformed using the formula below, plotted against the logarithm of the concentrations, and a non-linear regression (log(inhibitor) vs. response, variable slope) was calculated using GraphPad Prism to assess the half-inhibitory […]\nGrowth inhibition % = (1 − average(sample)− average(uRBC)) ∗ 100 […]\nThe DMSO samples were also used to assess growth of parasite in the presence of 0.25 and 2.5 mM GlcN (normalised by DMSO in 0 mM GlcN). […]", "note": "“And” between values parts separate entries of the source, which are not always exact repeats. Identical values can stand only once."}
{"smiles": "Cc1cc(Cl)c(S(=O)(=O)N2CCCC2)cc1OCC(=O)NC1CCCCC1", "note": "[M-833]", "values": [{"measurement": "sample/DMSO (growth inhibition vs DMSO, LDH)", "setting": "M-833 0.37037 uM", "result": "86.8658 and 83.833 and 67.9393 and 76.787"}, {"measurement": "sample/DMSO (growth inhibition vs DMSO, LDH)", "setting": "M-833 1.11111 uM", "result": "92.389 and 94.7232 and 88.5258 and 88.1778"}, {"measurement": "sample/DMSO (growth inhibition vs DMSO, LDH)", "setting": "M-833 3.33333 uM", "result": "94.0803 and 95.4726 and 90.5741 and 88.9113"}, {"measurement": "Growth (Abs) Normalised to DMSO", "setting": "3D7, M-833 0.0390625 uM", "result": 98.5985}, {"measurement": "Growth (Abs) Normalised to DMSO", "setting": "3D7, M-833 0.078125 uM", "result": 87.6094}, {"measurement": "Growth (Abs) Normalised to DMSO", "setting": "3D7, M-833 0.15625 uM", "result": 73.0137}, {"measurement": "Growth (Abs) Normalised to DMSO", "setting": "3D7, M-833 0.3125 uM", "result": 46.3221}, {"measurement": "Growth (Abs) Normalised to DMSO", "setting": "3D7, M-833 0.625 uM", "result": 13.1941}, {"measurement": "Growth (Abs) Normalised to DMSO", "setting": "3D7, M-833 1.25 uM", "result": 5.1955}, {"measurement": "Growth (Abs) Normalised to DMSO", "setting": "3D7, M-833 2.5 uM", "result": 3.473}, {"measurement": "Growth (Abs) Normalised to DMSO", "setting": "3D7, M-833 5 uM", "result": 2.75}, {"measurement": "Growth (Abs) Normalised to DMSO", "setting": "3D7, M-833 10 uM", "result": 1.893}, {"measurement": "(av-uRBC) / (DMSO-uRBC) x100", "setting": "conc. 3.04832 nM, Biological replicate 1 (2021-10-25)", "result": 99.6118}, {"measurement": "(av-uRBC) / (DMSO-uRBC) x100", "setting": "conc. 3.04832 nM, Biological replicate 2 (2021-11-03)", "result": 102.365}, {"measurement": "(av-uRBC) / (DMSO-uRBC) x100", "setting": "conc. 9.14495 nM, Biological replicate 1 (2021-10-25)", "result": 98.5673}, {"measurement": "(av-uRBC) / (DMSO-uRBC) x100", "setting": "conc. 9.14495 nM, Biological replicate 2 (2021-11-03)", "result": 104.012}, {"measurement": "(av-uRBC) / (DMSO-uRBC) x100", "setting": "conc. 27.4348 nM, Biological replicate 1 (2021-10-25)", "result": 97.1981}, {"measurement": "(av-uRBC) / (DMSO-uRBC) x100", "setting": "conc. 27.4348 nM, Biological replicate 2 (2021-11-03)", "result": 104.176}, {"measurement": "(av-uRBC) / (DMSO-uRBC) x100", "setting": "conc. 82.3045 nM, Biological replicate 1 (2021-10-25)", "result": 86.0541}, {"measurement": "(av-uRBC) / (DMSO-uRBC) x100", "setting": "conc. 82.3045 nM, Biological replicate 2 (2021-11-03)", "result": 97.3382}, {"measurement": "(av-uRBC) / (DMSO-uRBC) x100", "setting": "conc. 246.914 nM, Biological replicate 1 (2021-10-25)", "result": 38.189}, {"measurement": "(av-uRBC) / (DMSO-uRBC) x100", "setting": "conc. 246.914 nM, Biological replicate 2 (2021-11-03)", "result": 46.3664}, {"measurement": "(av-uRBC) / (DMSO-uRBC) x100", "setting": "conc. 740.741 nM, Biological replicate 1 (2021-10-25)", "result": 13.3602}, {"measurement": "(av-uRBC) / (DMSO-uRBC) x100", "setting": "conc. 740.741 nM, Biological replicate 2 (2021-11-03)", "result": 12.5985}, {"measurement": "(av-uRBC) / (DMSO-uRBC) x100", "setting": "conc. 2222.22 nM, Biological replicate 1 (2021-10-25)", "result": 9.5843}, {"measurement": "(av-uRBC) / (DMSO-uRBC) x100", "setting": "conc. 2222.22 nM, Biological replicate 2 (2021-11-03)", "result": 9.9758}, {"measurement": "(av-uRBC) / (DMSO-uRBC) x100", "setting": "conc. 6666.67 nM, Biological replicate 1 (2021-10-25)", "result": 8.737}, {"measurement": "(av-uRBC) / (DMSO-uRBC) x100", "setting": "conc. 6666.67 nM, Biological replicate 2 (2021-11-03)", "result": 9.539}, {"measurement": "(av-uRBC) / (DMSO-uRBC) x100", "setting": "conc. 20000 nM, Biological replicate 1 (2021-10-25)", "result": 8.871}, {"measurement": "(av-uRBC) / (DMSO-uRBC) x100", "setting": "conc. 20000 nM, Biological replicate 2 (2021-11-03)", "result": 7.978}, {"measurement": "Normalised to DMSO", "setting": "3D7 replicate 1, M-833 0.0390625 uM", "result": 93.8526}, {"measurement": "Normalised to DMSO", "setting": "3D7 replicate 1, M-833 0.078125 uM", "result": 78.1653}, {"measurement": "Normalised to DMSO", "setting": "3D7 replicate 1, M-833 0.15625 uM", "result": 53.0058}, {"measurement": "Normalised to DMSO", "setting": "3D7 replicate 1, M-833 0.3125 uM", "result": 31.7546}, {"measurement": "Normalised to DMSO", "setting": "3D7 replicate 1, M-833 0.625 uM", "result": 15.6331}, {"measurement": "Normalised to DMSO", "setting": "3D7 replicate 1, M-833 1.25 uM", "result": 6.894}, {"measurement": "Normalised to DMSO", "setting": "3D7 replicate 1, M-833 2.5 uM", "result": 4.18}, {"measurement": "Normalised to DMSO", "setting": "3D7 replicate 1, M-833 5 uM", "result": 4.492}, {"measurement": "Normalised to DMSO", "setting": "3D7 replicate 1, M-833 10 uM", "result": 2.7005}, {"measurement": "Normalised to DMSO", "setting": "3D7 replicate 2, M-833 0.0390625 uM (plate column as in replicate 1)", "result": 98.0943}, {"measurement": "Normalised to DMSO", "setting": "3D7 replicate 2, M-833 0.078125 uM (plate column as in replicate 1)", "result": 69.2248}]}
